In patent publication US12545685B2 (Daiichi Sankyo Company, Limited, priority 2011, dated 2026) one finds IC50 data, which are given here for 15 molecules.

A word on the IC50: it is the concentration that gives 50% inhibition. A low value points to greater potency.

In the assay the target is T1, Mdm2/p53 binding (GST-Mdm2 / His-p53) (Homo sapiens, UniProt Q00987, L33E).
T1 construct: Mdm2 partial protein having Mdm2 amino acids at positions 25 to 108
The assay is described as follows: Mdm2/p53 binding assay (HTRF, His-p53 and GST-Mdm2). The following applies: His-p53 (aa 1-132) and GST-Mdm2 (aa 25-108, L33E) 6.25 nM each; 25°C, 1 hour; values given as ranges. On the procedure:
A protein dilution containing 6.25 nM each of His-p53 (fusion protein of a p53 partial protein having p53 amino acids at positions 1 to 132, with a histidine protein) and GST-Mdm2 (fusion protein of an Mdm2 partial protein having Mdm2 amino acids at positions 25 to 108 with leucine residue 33 substituted by glutamic acid, with glutathione transferase) proteins was prepared using a protein buffer solution (20 mM HEPES pH 7.4, 150 mM NaCl, 0.1% BSA). This protein dilution was added in an amount of 8 μl/well to a 384-well plate (384-well low volume NBC, Corning Inc., catalog No: 3676).
Next, a test compound was diluted with DMSO to produce a protein buffer solution containing 10% dilution, and this buffer solution was added in an amount of 4 μl/well to the plate.
Subsequently, a solution containing an XL665-labeled anti-His antibody (HTRF monoclonal anti-6HIS antibody labeled with XL665 (catalog No: 61HISXLB), Schering/Cisbio Bioassays) and a europium (Eu)-labeled anti-GST antibody (HTRF monoclonal anti-GST antibody labeled with europium cryptate, Schering/Cisbio Bioassays, catalog No: 61GSTKLB) at concentrations of 2.5 μg/ml and 0.325 μg/ml, respectively, was prepared using an antibody diluting buffer solution (20 mM HEPES pH 7.4, 150 mM NaCl, 0.1% BSA, 0.5 M KF). These dilutions were added in an amount of 8 μl/well (total reaction solution volume: 20 μl/well). Then the plate was incubated at 25° ° C. for 1 hour.
Time-resolved fluorescence at 620 and 665 nm was measured at an excitation wavelength of 320 nm using a plate reader (ARVOsx, PerkinElmer Co., Ltd. or PHERAstar, BMG LABTECH). Ratio (R) was calculated using the measured values (RFU 620 nm and RFU 665 nm) according to the following formula: […]
BI: measured value at 665 nm of reaction solution (only each buffer solution) nonsupplemented with each protein, the compound, and the antibodies
A and D: each measured value at 665 nm and 620 nm of reaction solution supplemented with only Eu-labeled anti-GST antibody solution
The R value calculated from the well supplemented with His-p53, GST-Mdm2, the test compound, and each antibody was defined as R (sample). The R value calculated from the well supplemented with His-p53, GST-Mdm2, and each antibody but without the test compound was defined as R (control). The R value calculated from the well supplemented with GST-Mdm2 the test compound, and each antibody but without His-p53 was defined as R (background). T/C was calculated from the formula shown below. An IC50 value for Mdm2/p53 binding was calculated by sigmoid fitting.
Background: Time-resolved FRET reads energy transfer from a long-lived donor to a nearby acceptor.

T1 sequence (Q00987 25-108 L33E): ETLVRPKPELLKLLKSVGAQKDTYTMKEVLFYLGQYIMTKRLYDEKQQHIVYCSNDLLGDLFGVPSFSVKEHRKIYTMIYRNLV

Molecule `NC(=O)[C@@H]1CC[C@@H](NC(=O)[C@@H]2NC3(CC(CF)(CF)C3)[C@@]3(C(=O)Nc4cc(Cl)ccc43)[C@H]2c2cccc(Cl)c2F)CO1` [Example 122, (3′R, 4′S,5′R)—N-[(3R, 6S)-6-carbamoyltetrahydro-2H-pyran-3-yl]-6″-chloro-4′-(3-chloro-2-fluorophenyl)-3,3-bis(fluoromethyl)-2″-oxo-1″,2″-dihydrodispiro[cyclobutane-1,2-pyrrolidine-3′,3″-indole]-5′-carboxamide] displayed an IC50 of 0.001 to 0.05 µM.
As for `O=C(N[C@H]1CC[C@H](c2nnc(CO)o2)CC1)[C@@H]1NC2(CC(CF)(CF)C2)[C@@]2(C(=O)Nc3cc(Cl)ccc32)[C@H]1c1cccc(Cl)c1F` [Example 131, (3′R, 4′S,5′R)-6″-chloro-4′-(3-chloro-2-fluorophenyl)-3,3-bis(fluoromethyl)-N-[trans-4-[5-(hydroxymethyl)-1,3,4-oxadiazol-2-yl]cyclohexyl]-2″-oxo-1″,2″-dihydrodispiro[cyclobutane-1,2′-pyrrolidine-3′,3″-indole]-5′-carboxamide], the 50% inhibitory concentration (IC50) was 0.05 to 0.1 µM.
`O=C(NC1CCOCC1)[C@@H]1CC[C@@H](NC(=O)[C@@H]2NC3(CC(CF)(CF)C3)[C@@]3(C(=O)Nc4cc(Cl)ccc43)[C@H]2c2cccc(Cl)c2F)CO1` [Example 137, (3′R, 4′S,5′R)-6″-chloro-4′-(3-chloro-2-fluorophenyl)-3,3-bis(fluoromethyl)-2″-oxo-N-[(3R,6S)-6-(tetrahydro-2H-pyran-4-ylcarbamoyl)tetrahydro-2H-pyran-3-yl]-1″,2″-dihydrodispiro[cyclobutane-1,2′-pyrrolidine-3′,3″-indole]-5′-carboxamide] had an IC50 of 0.05 to 0.1 µM.
`CO[C@]1(CO)CC[C@H](NC(=O)[C@@H]2NC3(CCC(C)(C)CC3)[C@@]3(C(=O)Nc4nc(Cl)ccc43)[C@H]2c2ccnc(Cl)c2F)CC1` [Example 83, (3′R, 4′S,5′R)-6″-chloro-4′-(2-chloro-3-fluoropyridin-4-yl)-N-[cis-4-(hydroxymethyl)-4-methoxycyclohexyl]-4,4-dimethyl-2″-oxo-1″,2″-dihydrodispiro[cyclohexane-1,2′-pyrrolidine-3′,3″-pyrrolo[2,3-b]pyridine]-5′-carboxamide] registered an IC50 of 0.001 to 0.05 µM.
`CN(C)C(=O)C[C@@H]1CC[C@@H](NC(=O)[C@@H]2NC3(CC(CF)(CF)C3)[C@@]3(C(=O)Nc4cc(Cl)ccc43)[C@H]2c2cccc(Cl)c2F)CO1` [Example 153, (3′R, 4′S,5′R)-6″-chloro-4′-(3-chloro-2-fluorophenyl)-N-{(3R,6S)-6-[2-(dimethylamino)-2-oxoethyl]tetrahydro-2H-pyran-3-yl}-3,3-bis(fluoromethyl)-2″-oxo-1″,2″-dihydrodispiro[cyclobutane-1,2′-pyrrolidine-3′,3′-indole]-5′-carboxamide] displayed a half-maximal inhibitory concentration (IC50) of 0.001 to 0.05 µM.
In turn, `COCCNC(=O)[C@@H]1CC[C@@H](NC(=O)[C@@H]2NC3(CC(CF)(CF)C3)[C@@]3(C(=O)Nc4cc(Cl)ccc43)[C@H]2c2cccc(Cl)c2F)CO1` [Example 142, (3′R, 4′S,5′R)-6″-chloro-4′-(3-chloro-2-fluorophenyl)-3,3-bis(fluoromethyl)-N-{(3R,6S)-6-[(2-methoxyethyl)carbamoyl]tetrahydro-2H-pyran-3-yl}-2″-oxo-1″,2″-dihydrodispiro[cyclobutane-1,2′-pyrrolidine-3′,3″-indole]-5′-carboxamide] came in with an IC50 of 0.001 to 0.05 µM.
With `CC1(C)CCC2(CC1)N[C@@H](C(=O)N[C@@H]1CC[C@@H](C(N)=O)OC1)[C@H](c1ccnc(Cl)c1F)[C@]21C(=O)Nc2nc(Cl)ccc21` [Example 71, (3′R, 4′S, S′R)—N-[(3R,6S)-6-carbamoyltetrahydro-2H-pyran-3-yl]-6″-chloro-4′-(2-chloro-3-fluoropyridin-4-yl)-4,4-dimethyl-2″-oxo-1″,2″-dihydrodispiro[cyclohexane-1,2′-pyrrolidine-3′,3″-pyrrolo[2,3-b]pyridine]-5′-carboxamide], the 50% inhibitory concentration (IC50) fell in the range of 0.001 to 0.05 µM.
In turn, `CN(C)C(=O)[C@@H]1CC[C@@H](NC(=O)[C@@H]2NC3(CCC(C)(C)CC3)[C@@]3(C(=O)Nc4nc(Cl)ccc43)[C@H]2c2ccnc(Cl)c2F)CO1` [Example 104, (3′R, 4′S,5′R)-6″-chloro-4′-(2-chloro-3-fluoropyridin-4-yl)-N-[(3R,6S)-6-(dimethylcarbamoyl)tetrahydro-2H-pyran-3-yl]-4,4-dimethyl-2″-oxo-1″,2″-dihydrodispiro[cyclohexane-1,2′-pyrrolidine-3′,3″-pyrrolo[2,3-b]pyridine]-5′-carboxamide] registered an IC50 of 0.001 to 0.05 µM.
The same measure for `CNC(=O)c1cc(Cl)cc([C@H]2[C@H](C(=O)N[C@@H]3CC[C@@H](CO)OC3)NC3(CCC(C)(C)CC3)[C@@]23C(=O)Nc2cc(Cl)ccc23)c1` [Example 27, 2, 5˜Anhydro-2-[({(3′R, 4′R, 5′R)-6″-chloro-4′-[3-chloro-5-(methylcarbamoyl)phenyl]-4,4-dimethyl-2″-oxo-1″,2″-dihydrodispiro[cyclohexane-1,2′-pyrrolidine-3′,3″-indole]-5′-yl}carbonyl)amino]-2,3,4-trideoxy-D-erythro-hexitol]: 0.001 to 0.05 µM.
The same measure for `O=C(NCCF)[C@@H]1CC[C@@H](NC(=O)[C@@H]2NC3(CC(CF)(CF)C3)[C@@]3(C(=O)Nc4cc(Cl)ccc43)[C@H]2c2cccc(Cl)c2F)CO1` [Example 138, (3′R, 4′S,5′R)-6″-chloro-4′-(3-chloro-2-fluorophenyl)-N-{(3R,6S)-6-[(2-fluoroethyl)carbamoyl]tetrahydro-2H-pyran-3-yl}-3,3-bis(fluoromethyl)-2″-oxo-1″,2″-dihydrodispiro[cyclobutane-1,2′-pyrrolidine-3′,3″-indole]-5′-carboxamide]: 0.05 to 0.1 µM.
`CC1(C)CCC2(CC1)N[C@@H](C(=O)N[C@@H]1CC[C@@H](c3ncon3)OC1)[C@H](c1cccc(Cl)c1F)[C@]21C(=O)Nc2nc(Cl)ccc21` [Example 62, (3′R, 4′S,5′R)-6″-chloro-4′-(3-chloro-2-fluorophenyl)-4,4-dimethyl-N-[(3R,6S)-6-(1,2,4-oxadiazol-3-yl)tetrahydro-2H-pyran-3-yl]-2″-oxo-1″,2″-dihydrodispiro[cyclohexane-1,2′-pyrrolidine-3′,3″-pyrrolo[2,3-b]pyridine]-5′-carboxamide] displayed an IC50 of 0.05 to 0.1 µM.
On to `CC1(C)CCC2(CC1)N[C@@H](C(=O)N[C@@H]1CC[C@@H](c3n[nH]c(=O)o3)OC1)[C@H](c1ccnc(Cl)c1)[C@]21C(=O)Nc2cc(Cl)ccc21` [Example 56, (3′R, 4′R, 5′R)-6″-chloro-4′-(2-chloropyridin-4-yl)-4,4-dimethyl-2″-Oxo-N-[(3R,6S)-6-(5-oxo-4,5-dihydro-1,3,4-oxadiazol-2-yl)tetrahydro-2H-pyran-3-yl]-1″,2″-dihydrodispiro[cyclohexane-1,2′-pyrrolidine-3′,3″-indole]-5′-carboxamide], for which the IC50 is 0.001 to 0.05 µM.
The same measure for `CO[C@]1(CO)CC[C@@H](NC(=O)[C@@H]2NC3(CCC(C)(C)CC3)[C@@]3(C(=O)Nc4nc(Cl)ccc43)[C@H]2c2cccc(Cl)c2F)CC1` [Example 81, (3′R, 4′S,5′R)-6″-chloro-4′-(3-chloro-2-fluorophenyl)-N-[trans-4-(hydroxymethyl)-4-methoxycyclohexyl]-4,4-dimethyl-2″-oxo-1″,2″-dihydrodispiro[cyclohexane-1,2′-pyrrolidine-3′,3″-pyrrolo[2,3-b]pyridine]-5′-carboxamide]: 0.001 to 0.05 µM; for `CC1(C)CCC2(CC1)N[C@@H](C(=O)N[C@@H]1CC[C@@H](C(N)=O)OC1)[C@H](c1cccc(Cl)c1F)[C@]21C(=O)Nc2cc(Cl)ccc21` [Example 181, (3′R, 4′S,5′R)-N-[(3R, 6S)-6-carbamoyltetrahydro-2H-pyran-3-yl]-6″-chloro-4′-(3-chloro-2-fluorophenyl)-4,4-dimethyl-2″-oxo-1″,2″-dihydrodispiro[cyclohexane-1,2′-pyrrolidine-3′,3′-indole]-5′-carboxamide]: 0.001 to 0.05 µM; for `CC(O)[C@@H]1CC[C@@H](NC(=O)[C@@H]2NC3(CC(CF)(CF)C3)[C@@]3(C(=O)Nc4cc(Cl)ccc43)[C@H]2c2cccc(Cl)c2F)CO1` (single isomer, unassigned) [Example 146]: 0.001 to 0.05 µM.
